One molecule from patent publication US8258116B2, “Combination therapy for the treatment of HCV infection” (Vertex Pharmaceuticals Incorporated, priority 2007, dated 2012) can be followed below.

The test system of this assay is HCV genotype 1. Put plainly: phase 1b trial (Study VX04-950-101). Type of assay: in vivo. As to conditions: subjects infected with HCV genotype 1, phase 1b. An excerpt: The degree to which a subject responds to treatment and the rate at which viral rebound is observed could in part be due to genotypic differences in sensitivity to the protease inhibitor. The rapid replication rate of HCV, along with the poor fidelity of its polymerase, gives rise to an accumulation of mutations throughout its genome [P. Simmonds, “Genetic diversity and evolution of hepatitis C virus—15 years on,” J. Gen. Virol., 85, pp. 3173-88 (2004)]. The degree to which sequence variability in the protease region affects the catalytic efficiency of the enzyme or the binding of an inhibitor is not known. Additionally, the generation of numerous viral genomes with remarkable sequence variation presents potential problems of emerging drug resistant virus in subjects treated with antiviral therapy. Indeed, drug resistance against antiviral drugs, such as HIV protease inhibitors, is well documented [Johnson et al., Top. HIV Med., 12, pp. 119-24 (2004)]. […] Agents Chemother., 48, pp. 2260-6 (2004); Trozzi et al., “In vitro selection and characterization of hepatitis C virus serine protease variants resistant to an active-site peptide inhibitor,” J. Virol. 77, pp. 3669-79 (2003)]. […]

Take `CCC[C@H](NC(=O)[C@@H]1[C@H]2CCC[C@H]2CN1C(=O)[C@@H](NC(=O)[C@@H](NC(=O)c1cnccn1)C1CCCCC1)C(C)(C)C)C(=O)C(=O)NC1CC1` [VX-950]: the antiviral activity result is reported as “substantial antiviral activity”.
